Results from patent US20030236212A1, “Functionalized long chain derivatives as acyl coenzyme-A mimics, compositions thereof, and methods of cholesterol management and related uses” (priority 2002, published 2003).

How the values were obtained:
primary rat hepatocytes = experiment: Synthesis of total lipids (14C-acetate labeling) in primary rat hepatocytes; type: cell-based; conditions: rat hepatocyte cells, 14C-acetate 4 hr, vs vehicle control
Experimental: A male Sprague-Dawley rate was anesthetized by administration of sodium pentobarbitol by intraperitoneal at 80 mg/kg. In situ perfusion of the liver was performed as follows. The abdomen of the animal was opened, the portal vein canulated, and the liver perfused with WOSH solution (149 mM NaCl, 9.2 mM Na HEPES, 1.7 mM Fructose, 0.5 mM EGTA, 0.029 mM Phenol red, 10 U/ml heparin, pH 7.5) at a flow rate of 30 ml/min for 6 minutes. To digest the liver, DSC solution (6.7 mM KCl, 143 mM NaCl, 9.2 mM Na HEPES, 5 mM CaCl2-2H2O, 1.7 mM Fructose, 0.029 mM Phenol red, 0.2% BSA, 100 U/ml collagenase Type 1,160 BAEE/ml trypsin inhibitor, pH 7.5) was perfused through the liver at a flow rate of 30 ml/min for 6 minutes at a temperature of 37° C. After digestion, cells were dispersed in a solution of DMEM-(DMEM containing 2 mM GlutMax-1, 0.2% BSA, 5% FBS, 12 nM insulin, 1.2 μM hydrocortisone) to stop the digestion process. The crude cell suspension was filtered through three layers of stainless steel mesh with pore sizes of 250, 106, and 75 μm respectively. Filtered cells were centrifuged at 50×g for two minutes and the supernatant discarded. The resulting cell pellet was resuspended in DMEM and centrifuged again. This final cell pellet was resuspended in DMEM+HS solution (DMEM containing 2 mM GlutMax-1, 20 mM delta-aminolevulinic acid, 17.4 mM MEM nonessential amino acids, 20% FBS, 12 nM insulin, 1.2 μM hydrocortisone) and plated to form monolayer cultures at a density of 100×10^3 cells/cm^2 on collagen coated culture dishes.
To test the effect of an illustrative compound of the invention on synthesis rates of total lipids, the monolayer cultures were exposed to 1, 3, 10, 30, 100, or 300 μM of Compound A or 10 μM of Compound 1 in DMEM+containing 1 μCi/ml 14C-acetate, D-glucose, hepes, glutamine, leucine, alanine, lactate, pyruvate, non-essential amino acids, BSA, and gentamicine. Control cells were exposed to the same media lacking lovastatin or the test compounds. All cells were exposed to 0.1% DMSO. Metabolic labeling with ^14C-acetate continued for 4 hr at 37° C. After labeling, cells were washed twice with 1 mL of PBS followed by addition of scintallant (Microscent E) and counted on Topcount®.

obese female Zucker rats = experiment: Oral daily treatment of obese female Zucker rats for 14 days (body weight, serum lipids, glucose, insulin); type: in vivo, rat; set-up: HDL-C / Glucose / Insulin / NEFA / BHA / TG / TC / Non HDL-C: unit not given here
[1] = obese female Zucker rats, oral gavage daily 14 days, 100 mg/kg
[2] = obese female Zucker rats, oral, 14 days, 100 mg/kg/day (Table 1)

In the case of `CC(C)(CCCCOCCCCC(C)(C)COP(=O)(O)O)COP(=O)(O)O.N.N.N.N` [Compound A], the melting point was 185 to 186 °C, the “reduction of rates of total lipid synthesis” value (primary rat hepatocytes; 3 μM) was “at least 97%” and the “reduction of rates of total lipid synthesis” value (primary rat hepatocytes; 10 μM) was “at least 97%”. For the same compound, the “serum insulin relative to pretreatment” value (obese female Zucker rats; fasted obese female Zucker rats, two weeks of treatment, 100 mg/kg) was “rose slightly”, the “liver to body weight” value (obese female Zucker rats; [1]) was “increased” and the “serum non-esterified fatty acids” value (obese female Zucker rats; [1]) was “reduced”. The serum total cholesterol (obese female Zucker rats; [1]) was “elevated”, the serum triglycerides (obese female Zucker rats; [1]) was “reduced” and the “weight gain, percent of initial weight after two weeks” value (obese female Zucker rats; [1]) was 1%. For the same compound, the β-hydroxy butyrate levels (obese female Zucker rats; [1]) was “elevated”, the BHA (obese female Zucker rats; [2]) was 1 ± 0.5 and the Glucose (obese female Zucker rats; [2]) was 5.6 ± 4.2. It also gave an HDL-C (obese female Zucker rats; [2]) of 186.7 ± 51.5, an Insulin (obese female Zucker rats; [2]) of 10.6 ± 26.3 and an NEFA (obese female Zucker rats; [2]) of 0.059 ± 0.003. The “Non HDL-C” value (obese female Zucker rats; [2]) was −30.6 ± 15.4, the TC (obese female Zucker rats; [2]) was −85.7 ± 1.2 and the TG (obese female Zucker rats; [2]) was 833.8 ± 209.9. The “ratio of non-HDL cholesterol to HDL cholesterol content” value (obese female Zucker rats; obese female Zucker rats, relative to control and reference compound-treated animals, 100 mg/kg) was “improved”, the HDL-cholesterol elevation (obese female Zucker rats; obese female Zucker rats, two-week treatment, 100 mg/kg) was 9 fold and the body weight increases (obese female Zucker rats; obese female Zucker rats, versus reference compound-treated animals, 100 mg/kg) was “did not cause the body weight increases”.
